What was measured:
Format in all cases: cell-based, mouse
MEFs from OG mice [1] = test: Screen for small molecules that facilitate late reprogramming (DOX-inducible Oct4 plus VC6T)
Experimental: To identify small molecules that facilitate late reprogramming, a doxycycline (DOX)-inducible Oct4 expression screening system was used (Li, et al., Cell Res. 21:196-204 (2011)).
MEFs from OG mice were plated as described above and infected with Fu-tet-hOct4 and FUdeltaGW-rtTA lentiviruses. The induction protocol was carried out as described above.
After infection, the culture medium was replaced with LIF-free ESC culture medium containing VC6T (VPA, CHIR99021, 616452, Tranylcypromine) plus DOX (1 μg/ml). Alternatively, MEFs harboring DOX-inducible Oct4 from Tet-On POU5F1 mouse strain B6; 129-Gt(ROSA)26Sor^tm1(rTA*M2)Jae COl1a1^tm2(tetO-Pou5f1)Jae/J were used in this screen (Li, et al., Cell Res., 21:196-204 (2011)). These two DOX-inducible systems were only used in this screen, but not in complete chemical reprogramming. Individual chemicals from small-molecule libraries were added to each well. Small molecules were added at different culture time points. 5-aza-C (5-Azacytidine) and DZNep were added from day 8. The medium and chemicals were changed every 4 days; DOX was added only for the first 4-8 days. Chemical treatments were continued for 16-24 days or until GFP-positive colonies appeared. Primary hits were selected for further confirmation and optimization. CiPSC colonies were counted on day 44. […]

[2] = test system: pluripotency-related genes; test: Gene expression during chemical reprogramming (real-time PCR, RNA-seq); conditions: for activation of endogenous expression of Sall4 and Sox2: withdrawal from VC6TF, after 12 days
Oct4 promoter [3] = test: Chromatin immunoprecipitation, H3K9 methylation at the Oct4 promoter
Experimental: ChIP was performed using the EZ-Magna ChIP A/G Kit (Millipore) according to the manufacturer's protocol. Anti-H3K27me3 (Abcam, ab6002), anti-H3K9me2 (Millipore, 07-441), anti-H3K4me3 (Abcam, ab8580) and anti-H3K9ac (Abcam, ab4441) antibodies were used. Following immunoprecipitation, DNA was analyzed by real-time PCR.
(§1) The function of DZNep in inducing CiPSCs could not be replaced by down-regulating Ezh2 expression (FIGS. 14C-E). GFP+/ES-like colonies in the primary culture, unlike other colonies, express high mRNA level of Nanog and low level of Gata6, resembling ESCs and the established CiPSCs (data not shown). As master pluripotency genes, Oct4 and Sox2 may thereby activate other pluripotency-related genes and fulfill the chemical reprogramming process, along with the activation of Nanog and the silencing of Gata6, in the presence of 2i (Silva, et al., PLoS Biol. 6:e253 (2008), Theunissen, et al., Curr. Biol., 21:65-71 (2011). Boyer, et al., Cell, 122:947-956(2005); Chazaud, at al., Dev. Cell, 10:615-624 (2006)).

Oct4 promoter [4] = test: DNA methylation at the Oct4 promoter during chemical reprogramming
Source text: Genomic DNA was modified by bisulfite treatment and purified using the MethylCode™ Bisulfite Conversion Kit (Invitrogen) according to the manufacturer's protocol. The amplified fragments were cloned into the pEASY-blunt Vector (Transgene). Ten randomly picked clones from each sample were sequenced.
as §1

[5] = test system: concentration ratio of SAH to SAM; test: SAH and SAM quantification by HPLC
Experimental: (§2) cAMP was quantified using the Direct cAMP ELISA Kit (Enzo) according to the manufacturer's protocol. For SAM and SAH quantification, cultured cells (1,000,000 cells) were trypsinized and homogenized by ultrasonication in 200 μl PBS. Then 40 μl of 400 mg/ml TCA was added. Cell extracts were incubated on ice for 30 min. After centrifugation at 4° C. (13,000 rpm, 15 min), the supernatants were filtered through a 0.22 μm filter and analyzed by high-performance liquid chromatography (HPLC, Shimadzu) with HILIC columns (Waters).
Next, the role of DZNep, which was added in the late phase of chemical reprogramming was investigated. […] As an SAH hydrolase inhibitor, DZNep elevates the concentration ratio of SAH to S-adenosylmethionine (SAM) and may thereby repress the SAM-dependent cellular methylation process (FIG. 14A).

MEFs = test: CiPSC induction by small-molecule combinations, primary CiPSC colonies counted; conditions: for replacement of DZNep in CiPSC generation: in combination with VC6TF
Experimental: The initial cells (MEFs, MNFs, MAFs or ADSCs) were seeded at a density of 50,000 cells per well of a 6-well plate or 300,000 cells per 100 mm dish. On the next day (day 0), the original medium was replaced with chemical reprogramming medium containing the small-molecule combinations. The small-molecule combinations-containing medium was changed every 4 days. On day 12, these cells were washed in PBS and digested with 0.25% Trypsin-EDTA (Invitrogen) at 37° C. for 3-5 min. After neutralization, the cell clumps were dissociated into single cells by thorough pipetting. The cells were harvested (300,000-1,000,000 cells per well of a 6-well plate) and replated at a density of 300,000-500,000 cells per well of a 6-well plate in the chemical reprogramming medium containing the small-molecule combinations. DZNep was added to the cell cultures on day 16 or day 20. On day 28-36, the small-molecule combinations including DZNep were removed. Meanwhile, the chemical reprogramming medium was replaced with 2i-medium. After another 8-12 days, 2i-competent, ESC-like and GFP-positive colonies were counted as primary CiPSC colonies. For CiPSC induction from wild-type cells without OG reporter, 2i-competent and ESC-like colonies were counted as primary CiPSC colonies. These CiPSC colonies were picked up for expansion and characterization. Alternatively, CiPSCs could be induced without replating on day 12.

cAMP level in MEF = test: Intracellular cAMP quantification (Direct cAMP ELISA); conditions: FSK 10 μM, versus DMSO control
Experimental: as §2
The effect of inhibiting adenylate cyclase on the number of colonies generated by VC6TFZ was tested. […] The effect of replacing FSK with the cAMP analog (DBcAMP), alone or in combination with phosphodiesterase inhibitors, IBMX, or the phosphodiesterase inhibitor, rolipram and IBMX, on cell reprogramming was also tested. Both DBcAMP and IBMX were used at 50 μM in the combination treatment.

MEFs from OG mice [6] = test: Screen for chemical substitutes of Oct4 in OG-MEFs infected with Sox2, Klf4 and c-Myc; conditions: OG-MEFs with viral expression of Sox2, Klf4 and c-Myc
Experimental: To identify chemical substitutes of Oct4, MEFs from OG mice were plated at a density of 20,000 cells per well of a 12-well plate and infected with lentiviruses encoding Sox2, Klf4 and c-Myc. After infection, the medium was replaced with LIF-free ESC culture medium. Individual chemicals from small-molecule libraries were added to each well. The medium and chemicals were changed every 4 days. Chemical treatments were continued for 14-20 days or until GFP-positive colonies appeared. Primary hits were selected for further confirmation and optimization.
Small molecules that enable reprogramming in the absence of Oct4 were searched using Oct4 promoter-driven green fluorescent protein (GFP) expression (OG) mouse embryonic fibroblasts (MEFs), with viral expression of Sox2, Klf4, and c-Myc.

CCCC(=O)[O-].[Na+] [sodium butyrate, Sodiumbutyane]
hit facilitating late reprogramming (MEFs from OG mice [1]): identified in this screen

Nc1nccc2c1ncn2[C@@H]1C=C(CO)[C@@H](O)[C@H]1O [DZNep, 3-deazaneplanocin A]
Oct4 expression ([2]; after addition of DZNep in chemical reprogramming): enhanced significantly
H3K9 methylation at the Oct4 promoter (Oct4 promoter [3]): significantly decreased
hit facilitating late reprogramming (MEFs from OG mice [1]): identified in this screen
DNA methylation at the Oct4 promoter (Oct4 promoter [4]): significantly decreased
concentration ratio of SAH to S-adenosylmethionine (SAM) [5]: elevates

COc1ccc(C2CNC(=O)C2)cc1OC1CCCC1 (centres unmarked) [Rolipram]
hit facilitating late reprogramming (MEFs from OG mice [1]): identified in this screen

Nc1nccc2c1ncn2C1OC(CO)C(O)C1O (centres unmarked) [DZA, 3-Deamadenoxine]
replacement of DZNep in CiPSC generation (MEFs): useful in replacing DZNep in reprogramming

Cc1cccc(-c2n[nH]cc2-c2ccc3ncccc3n2)n1 [compound 616452, 2-(3-(6-Methylpyridin-2-yl)-1H-pyrazol-4-yl)-1,5-naphthyridine]
activation of endogenous expression of Sall4 and Sox2 [2]: essential in activating

C=C[C@@]1(C)CC(=O)[C@]2(O)[C@@]3(C)[C@@H](O)CCC(C)(C)[C@@H]3[C@H](O)[C@H](OC(C)=O)[C@@]2(C)O1 [Forskolin]
activation of endogenous expression of Sall4 and Sox2 [2]: essential in activating
cAMP level (cAMP level in MEF): significantly elevates
hit facilitating late reprogramming (MEFs from OG mice [1]): identified in this screen
reprogramming in the absence of Oct4 (chemical substitute for Oct4) (MEFs from OG mice [6]): identified as chemical “substitutes” for Oct4

NC(=O)c1ccc(-c2nc(-c3ccc4c(c3)OCCO4)c(-c3ccccn3)[nH]2)cc1 [D4476]
reprogramming in the absence of Oct4 (chemical substitute for Oct4) (MEFs from OG mice [6]): identified as chemical “substitutes” for Oct4

bFGF: recombinant basic fibroblast growth factor
requirement in inducing CiPSCs (MEFs; FIG. 5G): necessary in inducing CiPSCs

Nc1ncn([C@@H]2O[C@H](CO)[C@@H](O)[C@H]2O)c(=O)n1 [5-Azacytidine]
hit facilitating late reprogramming (MEFs from OG mice [1]): identified in this screen

Nc1ncnc2c1ncn2[C@@H]1C=C(CO)[C@@H](O)[C@H]1O [NEPA, (−)Neplanocin A]
replacement of DZNep in CiPSC generation (MEFs): useful in replacing DZNep in reprogramming

CCCCC[C@H](O)/C=C/[C@H]1[C@H](O)CC(=O)[C@@H]1C/C=C\CCCC(=O)O [Prostaglandin E2]
hit facilitating late reprogramming (MEFs from OG mice [1]): identified in this screen

C/C(=C\c1ccc(C(=O)O)cc1)c1ccc2c(c1)C(C)(C)CCC2(C)C [TTNPB, 4-[(E)-2-(5,6,7,8-Tetrahydro-5,5,8,8-tetramethyl-2-naphthalenyl)-1-propenyl]benzoic acid]
enhancement of chemical reprogramming efficiency, factor (MEFs; booster added to chemical reprogramming in MEFs): ≤ 40
chemical reprogramming frequency (MEFs; with booster TTNPB): up to 0.2%

Nc1ncnc2c1ncn2C(C=O)OC(C=O)CO (centres unmarked) [ADOX, Adenosine periodate oxidized]
replacement of DZNep in CiPSC generation (MEFs): useful in replacing DZNep in reprogramming

Cc1cnc(-c2cnc(NCCNc3ccc(C#N)cn3)nc2-c2ccc(Cl)cc2Cl)[nH]1 [CHIR99021, 6-[[2-[[4-(2,4-Dichlorophenyl)-5-(5-methyl-1H-imidazol-2-yl)-2-pyrimidinyl]amino]ethyl]amino]-3-pyridinecarbonitrile]
activation of endogenous expression of Sall4 and Sox2 [2]: essential in activating

Cc1[nH]c2ccc(O)cc2c1CCN [2-Me-5HT, 2-Methyl-5-hydroxytryptamine hydrocholoride]
reprogramming in the absence of Oct4 (chemical substitute for Oct4) (MEFs from OG mice [6]): identified as chemical “substitutes” for Oct4
